Read-outs that look alike come from different tables or passages of the source.
How the values were obtained:
[1] = set-up: method as in earlier work; conditions: patients after organ transplantation, ref Prikis and Cameron, 2022, Liu et al., 2023, Michael et al.; cited from earlier work
[2] = ref Nieminen et al., 2010; cited from earlier work
[3] = set-up: method as in Boosman et al., 2022; conditions: ref Boosman et al., 2022; cited from earlier work
[4] = Drug interaction study: pharmacokinetics of firmonertinib and AST-5902 in rats with or without nirmatrelvir and ritonavir (paxlovid); type: in vivo, Sprague-Dawley (SD) rats; conditions: for AUC(0-inf) / AUC(0-t) / Cmax / Tmax / half-life / CL/F / MRT last / MRT inf / Vd/F: male, Sprague-Dawley, rat, plasma, po, 7.2 mg/kg, rat plasma; for CL/F: read-out: CLz/F (converted); for MRT last: read-out: MRT(0-t); for MRT inf: read-out: MRT(0-∞); for Vd/F: read-out: Vz/F; for Difference in main pharmacokinetic data between single-dose and long-term nirmatrelvir and ritonavir groups: P > 0.05
Method: The experimental animals for pharmacokinetics were eighteen male Sprague-Dawley (SD) rats (6–8 weeks old), weighing 180–220 g, purchased from Beijing Vital River Laboratory Animal Technology Co., Ltd. All animal-related experimental operations and care were performed in accordance with the Guide for the Care and Use of Laboratory Animals and were approved by the Animal Research Ethics Committee of Wenzhou Medical University (wydw2022-0184). All SD rats were kept in an SPF animal laboratory and were provided with adequate feed and water until all rats reached the required body weight for the experiment. […] Eighteen SD rats were randomly and equally divided into three groups of six rats each. Group C rats (long-term administration group) were given 55 mg/kg nirmatrelvir and 20 mg/kg ritonavir by gavage every 12 h for 5 days. Groups B (single dose administration group) and A (control group) were also given the same amount of 0.5% CMC-Na every 12 h for 5 days. Prior to the pharmacokinetic experiments, all rats were fasted for 12 h, but drinking water was not prohibited. On the day of the experiment, 55 mg/kg nirmatrelvir and 20 mg/kg ritonavir were given once by gavage to rats in group B and group C. The same dose of 0.5% CMC-Na was given to group A rats. […] Blood was collected using heparin lithium-anticoagulant tubes and then centrifuged for 10 min at 13,000 rpm at 4°C. Subsequently, the upper plasma fraction was transferred to a clean centrifuge tube and placed in a −80°C refrigerator for storage until detection.
The pharmacokinetic parameters of three groups were analyzed by single factor analysis of variance using SPSS 28.0 software. A p value of less than 0.05 were considered significant difference between the two groups.

[5] = Stability in rat plasma under different storage conditions; type: in vitro ADME; conditions: for Stability RE (%), 4°C / Stability RE (%), Room temperature / Stability RE (%), Three freeze-thaw / Stability RE (%), −80°C: rat plasma; for Stability RE (%), 4°C: 4°C (24 h); for Stability RE (%), Room temperature: room temperature (4 h); for Stability RE (%), −80°C: −80°C long-term storage; for Stability in rat plasma: short-term and long-term storage conditions
Method: The stability of the method was assessed through the determination of low, medium and high concentration rat plasma quality control samples under various storage conditions. […] The stability of the samples was determined by the precision of measurement results, and the samples were considered stable when the CV% and RE% were both below 15%.

[6] = set-up: method as in Zhu et al., 2021; conditions: therapeutic doses of rifampicin (strong CYP3A4 inducer); clinical study; ref Zhu et al., 2021; cited from earlier work
[7] = set-up: method as in Heng et al., 2021; conditions: itraconazole (CYP3A4 inhibitor); clinical study; ref Heng et al., 2021; cited from earlier work
CYP3A4 = tested on: CYP3A4; set-up: method as in Liu et al., 2020; conditions: ref Liu et al., 2020, cited from earlier work
[8] = Group A control: single 7.2 mg/kg firmonertinib by gavage alone
[9] = Group B: single dose 55 mg/kg nirmatrelvir and 20 mg/kg ritonavir, then 7.2 mg/kg firmonertinib by gavage
[10] = Group C: 5 days twice a day 55 mg/kg nirmatrelvir and 20 mg/kg ritonavir, then 7.2 mg/kg firmonertinib by gavage
[11] = rats, long-term nirmatrelvir and ritonavir vs firmonertinib monotherapy group
[12] = rats, single dose nirmatrelvir and ritonavir vs firmonertinib monotherapy group
[13] = rats, long-term (5 days) nirmatrelvir and ritonavir vs firmonertinib monotherapy group

C=CC[C@@H]1/C=C(\C)C[C@H](C)C[C@H](OC)[C@H]2O[C@@](O)(C(=O)C(=O)N3CCCC[C@H]3C(=O)O[C@H](/C(C)=C/[C@@H]3CC[C@@H](O)[C@H](OC)C3)[C@H](C)[C@@H](O)CC1=O)[C@H](C)C[C@@H]2OC [tacrolimus]
Concentration of tacrolimus during Paxlovid treatment [1]: increase significantly

COc1ccc2c3c1O[C@H]1C(=O)CC[C@@]4(O)[C@@H](C2)N(C)CC[C@]314 [oxycodone]
AUC of oxycodone when administered simultaneously with ritonavir [2]: triples

C#Cc1cccc(Nc2ncnc3cc(OCCOC)c(OCCOC)cc23)c1 [erlotinib]
Pharmacokinetic exposure of 75 mg erlotinib orally with ritonavir versus 150 mg erlotinib orally [3]: comparable

C=CC(=O)Nc1cc(Nc2nccc(-c3cn(C)c4ccccc34)n2)c(OCC(F)(F)F)nc1N(C)CCNC [AST-5902]
AUC(0-inf) [4, 8]: 405 ± 60.4 ng·h/mL | AUC(0-t) [4, 8]: 387 ± 58.2 ng·h/mL | Cmax [4, 8]: 39 ± 2.46 ng/mL | Tmax [4, 8]: 5.33 ± 1.03 h | half-life [4, 8]: 4.94 ± 0.98 h | CL/F [4, 8]: 302 mL/min/kg | MRT last [4, 8]: 8.37 ± 0.39 h | MRT inf [4, 8]: 9.35 ± 0.4 h | Vd/F [4, 8]: 129 ± 35.5 L/kg | AUC(0-inf) [4, 9]: 185 ± 147 ng·h/mL | AUC(0-t) [4, 9]: 122 ± 15 ng·h/mL | Cmax [4, 9]: 9.79 ± 1.7 ng/mL | Tmax [4, 9]: 8.33 ± 2.94 h | half-life [4, 9]: 6.14 ± 4.31 h | CL/F [4, 9]: 851 mL/min/kg | MRT last [4, 9]: 8.94 ± 0.62 h | MRT inf [4, 9]: 8.73 ± 2.41 h | Vd/F [4, 9]: 362 ± 62.9 L/kg | AUC(0-inf) [4, 10]: 125 ± 13.2 ng·h/mL | AUC(0-t) [4, 10]: 122 ± 12.8 ng·h/mL | Cmax [4, 10]: 10.2 ± 1.42 ng/mL | Tmax [4, 10]: 8.67 ± 1.63 h | half-life [4, 10]: 3.65 ± 0.58 h | CL/F [4, 10]: 969 mL/min/kg | MRT last [4, 10]: 9.22 ± 0.19 h | MRT inf [4, 10]: 9.7 ± 0.33 h | Vd/F [4, 10]: 306 ± 56.7 L/kg | Difference in main pharmacokinetic data between single-dose and long-term nirmatrelvir and ritonavir groups ([4]; rats): no significant differences | AUC(0-∞) of AST-5902 decreased by [4, 11]: 70% | CLz/F of AST-5902 increased by [4, 11]: 3.2 times | Cmax of AST-5902 decreased by [4, 11]: 74% | Tmax of AST-5902 increased by [4, 11]: 1.62 times | Vz/F of AST-5902 increased by [4, 11]: 2.36 times | AUC(0-∞) of AST-5902 decreased by [4, 12]: 55% | CLz/F of AST-5902 increased by [4, 12]: 2.81 times | Cmax of AST-5902 decreased by [4, 12]: 75% | Tmax of AST-5902 increased by [4, 12]: 1.56 times | Vz/F of AST-5902 increased by [4, 12]: 2.79 times | AUC(0-t) of AST-5902 decreased by ([4]; rats, single-dose and long-term nirmatrelvir and ritonavir groups vs firmonertinib monotherapy group): 69% | Stability RE (%), 4°C ([5]; AST-5902 table, 0.2 ng/mL): −1.94% | Stability RE (%), Room temperature ([5]; AST-5902 table, 0.2 ng/mL): 4.37% | Stability RE (%), Three freeze-thaw ([5]; AST-5902 table, 0.2 ng/mL): 1.93% | Stability RE (%), −80°C ([5]; AST-5902 table, 0.2 ng/mL): 0.97% | Stability RE (%), 4°C ([5]; AST-5902 table, 5 ng/mL): −1.36% | Stability RE (%), Room temperature ([5]; AST-5902 table, 5 ng/mL): 1.25% | Stability RE (%), Three freeze-thaw ([5]; AST-5902 table, 5 ng/mL): 5.50% | Stability RE (%), −80°C ([5]; AST-5902 table, 5 ng/mL): 3.06% | Stability RE (%), 4°C ([5]; AST-5902 table, 40 ng/mL): 0.00% | Stability RE (%), Room temperature ([5]; AST-5902 table, 40 ng/mL): 0.31% | Stability RE (%), Three freeze-thaw ([5]; AST-5902 table, 40 ng/mL): −0.91% | Stability RE (%), −80°C ([5]; AST-5902 table, 40 ng/mL): −0.53% | Stability in rat plasma [5]: remain stable

C=CC(=O)Nc1cc(Nc2nccc(-c3cn(C)c4ccccc34)n2)c(OCC(F)(F)F)nc1N(C)CCN(C)C [firmonertinib]
Exposure of firmonertinib on co-administration with rifampicin [6]: significantly reduced | AUC(0-inf) [4, 8]: 367 ± 89.7 ng·h/mL | AUC(0-t) [4, 8]: 270 ± 28.4 ng·h/mL | Cmax [4, 8]: 13.5 ± 4.43 ng/mL | Tmax [4, 8]: 6.33 ± 1.97 h | half-life [4, 8]: 39.7 ± 35.7 h | CL/F [4, 8]: 341 mL/min/kg | MRT last [4, 8]: 24.5 ± 2.43 h | MRT inf [4, 8]: 61.8 ± 44.7 h | Vd/F [4, 8]: 1010 L/kg | AUC(0-inf) [4, 9]: 486 ± 103 ng·h/mL | AUC(0-t) [4, 9]: 456 ± 125 ng·h/mL | Cmax [4, 9]: 27 ± 9.75 ng/mL | Tmax [4, 9]: 6 ± 2.19 h | half-life [4, 9]: 16.2 ± 6.77 h | CL/F [4, 9]: 256 mL/min/kg | MRT last [4, 9]: 19.2 ± 2.34 h | MRT inf [4, 9]: 28.4 ± 6.88 h | Vd/F [4, 9]: 374 ± 209 L/kg | AUC(0-inf) [4, 10]: 458 ± 46 ng·h/mL | AUC(0-t) [4, 10]: 421 ± 21.4 ng·h/mL | Cmax [4, 10]: 27.9 ± 4.22 ng/mL | Tmax [4, 10]: 5 ± 1.1 h | half-life [4, 10]: 17.9 ± 5.91 h | CL/F [4, 10]: 264 mL/min/kg | MRT last [4, 10]: 19.6 ± 2.48 h | MRT inf [4, 10]: 30.3 ± 5.96 h | Vd/F [4, 10]: 400 ± 95.8 L/kg | Difference in main pharmacokinetic data between single-dose and long-term nirmatrelvir and ritonavir groups ([4]; rats): no significant differences | AUC(0-t) of firmonertinib increased by [4, 13]: 1.55 times | CLz/F of firmonertinib decreased by [4, 13]: 23% | Cmax of firmonertinib increased by [4, 13]: 2.05 times | MRT(0-t) of firmonertinib decreased by [4, 13]: 20% | MRT(0-∞) of firmonertinib decreased by [4, 13]: 51% | Vz/F of firmonertinib decreased by [4, 13]: 61% | t1/2 of firmonertinib decreased by [4, 13]: 55% | AUC(0-t) of firmonertinib increased by [4, 12]: 1.68 times | CLz/F of firmonertinib decreased by [4, 12]: 26% | Cmax of firmonertinib increased by [4, 12]: 1.99 times | MRT(0-t) of firmonertinib decreased by [4, 12]: 22% | MRT(0-∞) of firmonertinib decreased by [4, 12]: 55% | Vz/F of firmonertinib decreased by [4, 12]: 64% | t1/2 of firmonertinib decreased by [4, 12]: 60% | Exposure of firmonertinib on co-administration with itraconazole [7]: significantly increases | Stability RE (%), 4°C ([5]; 0.3 ng/mL): −4.98% | Stability RE (%), Room temperature ([5]; 0.3 ng/mL): 7.47% | Stability RE (%), 4°C ([5]; 40 ng/mL): 2.22% | Stability RE (%), Room temperature ([5]; 40 ng/mL): −0.57% | Stability RE (%), 4°C ([5]; 400 ng/mL): −2.90% | Stability RE (%), Room temperature ([5]; 400 ng/mL): 2.63% | Stability in rat plasma [5]: remain stable | Main metabolizing enzyme (CYP3A4; in vitro experiments, to N-demethylated metabolite AST-5902): metabolized mainly by CYP3A4 | Relation to CYP3A4 (CYP3A4; previous studies): both a substrate and an inducer of CYP3A4
